Measured values taken from publication PMC9481570, “A small molecule antagonist of SMN disrupts the interaction between SMN and RNAP II” (Nature Communications, 2022).
“And” between values parts separate entries of the source, which are not always exact repeats. Equal values may be shown once.

What was measured:
Assay in all cases: Affinity-purification and mass spectrometry (AP-MS) chemical proteomics, all proteins;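 as to Difference: 200 µM free competitor with 20 µM biotin probe overnight in lysate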
Type in all cases: binding
[1] = biological target: T1, proteins displaced from immobilized biotin-Cmpd 1 pulldowns (U2OS cell lysate) (Homo sapiens, UniProt Q9UN81); conditions: GN=L1RE1 (Q9UN81)
T1 construct: endogenous in cells; host or cells: U2OS
T1 sequence (Q9UN81 whole entry): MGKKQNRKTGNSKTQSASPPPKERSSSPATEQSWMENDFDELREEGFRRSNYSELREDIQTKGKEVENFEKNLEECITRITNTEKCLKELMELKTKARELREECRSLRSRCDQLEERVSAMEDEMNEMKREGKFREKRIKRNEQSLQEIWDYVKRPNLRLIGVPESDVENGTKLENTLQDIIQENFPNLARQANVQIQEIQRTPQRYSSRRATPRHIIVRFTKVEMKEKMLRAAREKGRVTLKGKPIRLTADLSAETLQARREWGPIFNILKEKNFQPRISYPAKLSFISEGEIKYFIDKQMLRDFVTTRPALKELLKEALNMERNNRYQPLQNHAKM
Experimental: (§1) The samples for AP-MS were prepared following pulldown procedure as previously described with minor modifications. Briefly, U2OS cells were lysed in RIPA buffer and the cell lysate was equally divided into two groups: (1) DMSO group (control group): the cell lysate was incubated with 20 μM biotin-labeled compound 1; (2) Cpmd 1 group (sample group): the cell lysate was incubated with 20 μM biotin-labeled compound 1 and 200 μM free compound 1. Each group contains three biological replicates. They were incubated overnight at 4 °C, then 30 μL streptavidin beads (Thermo Fisher, 20353) was added and incubated at 4 °C for 1 h. The beads were then washed with RIPA buffer for 3 times, 10 min/time.
(§2) Beads were rinsed twice with 50 mM TEAB, pH 7.55, before eluting proteins with 25 μL of 5% SDS, 50 mM TEAB, pH 7.55. The sample was then centrifuged at 17,000 × g for 10 min to remove any debris. Proteins were reduced with 20 mM TCEP (Thermo Fisher, 77720) and incubated at 65 °C for 30 min. The sample was cooled to room temperature and 1 μL of 0.5 M iodoacetamide acid was added and allowed to react for 20 min in dark. Phosphoric acid (12%, 2.75 μL) was added to the protein solution, followed by adding 165 μL of binding buffer (90% methanol, 100 mM TEAB, pH 7.1). The resulting solution was added to S-Trap spin column (protifi.com) and passed through the column using a bench top centrifuge (30 s spin at 4000 × g). The spin column was washed with 400 μL of binding buffer and centrifuged. This step was repeated two more times. Then trypsin was added to the protein mixture at a mass ratio of 1:25 in 50 mM TEAB, pH 8.0, and the sample was incubated at 37 °C for 4 h. Peptides were eluted with 80 μL of 50 mM TEAB, followed by 80 μL of 0.2% formic acid, and finally 80 μL of 50% acetonitrile, 0.2% formic acid. The combined peptide solution was then dried in a speed vac and resuspended in 2% acetonitrile, 0.1% formic acid, 97.9% water and placed in an autosampler vial.
(§3) Samples were analyzed by nanoLC-MS/MS (nanoRSLC, Thermo Fisher) using an Aurora series (Ion Opticks) reversed phase HPLC column (25 cm length × 75 µm inner diameter) and directly injected to an Orbitrap Eclipse (Thermo Fisher) using a 120 min gradient (mobile phase A = 0.1% formic acid, mobile phase B = 99.9% acetonitrile with 0.1% formic acid; hold 2% B for 5 min, 2–6% B in 0.1 min, 6–25% in 100 min, 25–50% in 15 min) at a flow rate of 350 nL/min. Eluted peptide ions were analyzed using a data-dependent acquisition (DDA) method with resolution settings of 120,000 and 15,000 (at m/z 200) for MS1 and MS2 scans, respectively. DDA-selected peptides were fragmented using stepped high energy collisional dissociation (27, 32, and 37%).
(§4) The data of AP-MS were analyzed as a previously described method with minor modifications. Briefly, the raw MS files were searched with MaxQuant software (version 1.6.1.1, www.maxquant.org)[56] against the UniProt human protein database (www.uniprot.org) concatenated with common contaminants and the decoy database. The mass tolerance for precursor ions was set to 20 ppm and 4.5 ppm for the first and main search, respectively. The cysteine carbamidomethylation was set as fixed modification and methionine oxidation and N-terminal acetylation as variable modifications. Enzyme specificity was set to trypsin and a maximum missed cleavage was set as 2. The 1% false discovery rate (FDR) at both peptide and protein levels was applied for the analysis. Relative protein quantification was based on the label-free quantification incorporated in the MaxQuant software. The iBAQ intensity of proteins was obtained for the control and experimental samples. The missing iBAQ intensity was replaced by a random number, which was calculated from a normal distribution with a width of 0.3 and a downshift of 1.8 defined by Perseus software (version 1.6.5.0). The P-value was calculated by performing two-sample Student’s t-test. […]

[2] = biological target: T2, proteins displaced from immobilized biotin-Cmpd 1 pulldowns (U2OS cell lysate) (Homo sapiens, UniProt P30048); conditions: GN=PRDX3 (P30048)
T2 construct: endogenous in cells; host or cells: U2OS
T2 sequence (P30048 62-256): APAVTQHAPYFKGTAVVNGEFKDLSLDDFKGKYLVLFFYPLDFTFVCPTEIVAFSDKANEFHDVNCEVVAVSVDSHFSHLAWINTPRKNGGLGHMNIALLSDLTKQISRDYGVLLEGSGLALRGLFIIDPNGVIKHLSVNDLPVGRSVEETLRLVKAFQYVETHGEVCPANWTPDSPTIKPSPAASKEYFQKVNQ
Experimental: as §1, §2, §3, §4

[3] = biological target: T3, proteins displaced from immobilized biotin-Cmpd 1 pulldowns (U2OS cell lysate) (Homo sapiens, UniProt Q92621); conditions: GN=NUP205 (Q92621)
T3 construct: endogenous in cells; host or cells: U2OS
T3 sequence (Q92621 whole entry): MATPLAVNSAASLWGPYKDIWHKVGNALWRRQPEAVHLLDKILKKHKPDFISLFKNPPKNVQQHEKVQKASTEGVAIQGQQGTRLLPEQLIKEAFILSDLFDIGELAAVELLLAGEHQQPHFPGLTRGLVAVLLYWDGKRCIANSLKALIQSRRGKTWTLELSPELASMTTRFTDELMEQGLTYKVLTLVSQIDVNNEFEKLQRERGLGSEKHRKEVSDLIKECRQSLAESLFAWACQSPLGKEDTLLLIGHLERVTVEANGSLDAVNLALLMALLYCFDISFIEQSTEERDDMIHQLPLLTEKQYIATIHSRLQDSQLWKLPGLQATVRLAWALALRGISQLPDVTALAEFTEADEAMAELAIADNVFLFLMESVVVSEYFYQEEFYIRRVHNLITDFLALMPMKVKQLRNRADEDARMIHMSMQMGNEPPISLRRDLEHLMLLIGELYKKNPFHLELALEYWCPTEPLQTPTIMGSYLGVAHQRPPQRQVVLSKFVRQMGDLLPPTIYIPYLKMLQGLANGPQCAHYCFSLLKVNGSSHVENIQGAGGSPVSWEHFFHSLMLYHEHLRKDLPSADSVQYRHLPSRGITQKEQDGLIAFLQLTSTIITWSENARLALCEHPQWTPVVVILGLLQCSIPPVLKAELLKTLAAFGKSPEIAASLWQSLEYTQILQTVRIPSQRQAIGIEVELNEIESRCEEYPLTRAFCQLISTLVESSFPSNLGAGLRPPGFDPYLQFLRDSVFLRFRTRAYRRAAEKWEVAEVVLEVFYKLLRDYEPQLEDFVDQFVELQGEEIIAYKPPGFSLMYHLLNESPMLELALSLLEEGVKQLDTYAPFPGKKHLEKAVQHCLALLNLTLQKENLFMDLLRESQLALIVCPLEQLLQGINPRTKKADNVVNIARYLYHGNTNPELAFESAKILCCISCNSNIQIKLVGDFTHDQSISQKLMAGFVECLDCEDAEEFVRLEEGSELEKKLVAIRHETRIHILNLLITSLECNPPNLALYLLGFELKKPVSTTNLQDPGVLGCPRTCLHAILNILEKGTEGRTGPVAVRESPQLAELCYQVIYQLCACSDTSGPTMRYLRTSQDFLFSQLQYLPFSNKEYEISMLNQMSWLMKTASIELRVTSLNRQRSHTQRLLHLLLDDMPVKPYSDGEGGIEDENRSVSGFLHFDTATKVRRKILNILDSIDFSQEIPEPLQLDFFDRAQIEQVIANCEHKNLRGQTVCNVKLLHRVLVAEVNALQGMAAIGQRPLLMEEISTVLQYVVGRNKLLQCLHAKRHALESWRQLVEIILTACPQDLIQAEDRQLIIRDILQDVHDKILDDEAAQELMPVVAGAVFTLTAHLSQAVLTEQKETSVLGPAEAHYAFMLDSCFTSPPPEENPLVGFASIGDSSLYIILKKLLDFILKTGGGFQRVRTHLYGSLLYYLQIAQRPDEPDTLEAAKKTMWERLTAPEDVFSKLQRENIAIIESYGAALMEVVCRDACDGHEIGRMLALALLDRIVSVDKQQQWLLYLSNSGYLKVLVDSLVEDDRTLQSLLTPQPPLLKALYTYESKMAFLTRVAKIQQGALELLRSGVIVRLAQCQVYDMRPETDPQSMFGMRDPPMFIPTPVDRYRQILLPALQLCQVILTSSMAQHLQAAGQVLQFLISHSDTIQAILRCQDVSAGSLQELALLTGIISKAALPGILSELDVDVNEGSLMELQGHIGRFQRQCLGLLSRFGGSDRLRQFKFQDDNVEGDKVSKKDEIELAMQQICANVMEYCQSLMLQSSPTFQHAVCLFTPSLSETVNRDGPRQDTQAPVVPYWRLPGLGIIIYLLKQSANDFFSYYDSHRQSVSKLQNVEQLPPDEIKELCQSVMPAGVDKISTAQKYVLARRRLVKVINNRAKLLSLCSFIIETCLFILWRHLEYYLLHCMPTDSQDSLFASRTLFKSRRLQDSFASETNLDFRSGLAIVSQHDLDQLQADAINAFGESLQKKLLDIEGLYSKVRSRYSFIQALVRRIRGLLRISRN
Experimental: as §1, §2, §3, §4

[4] = biological target: T4, proteins displaced from immobilized biotin-Cmpd 1 pulldowns (U2OS cell lysate) (Homo sapiens, UniProt P47756); conditions: GN=CAPZB (P47756)
T4 construct: endogenous in cells; host or cells: U2OS
T4 sequence (P47756 whole entry): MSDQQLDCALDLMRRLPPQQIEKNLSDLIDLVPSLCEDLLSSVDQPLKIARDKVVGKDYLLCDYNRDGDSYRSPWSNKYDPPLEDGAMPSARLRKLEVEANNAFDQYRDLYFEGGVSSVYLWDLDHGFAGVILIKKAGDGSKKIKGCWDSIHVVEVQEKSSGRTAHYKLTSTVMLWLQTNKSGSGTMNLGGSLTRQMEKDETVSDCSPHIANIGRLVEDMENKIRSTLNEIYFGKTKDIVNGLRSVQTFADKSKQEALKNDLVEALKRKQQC
Experimental: as §1, §2, §3, §4

[5] = biological target: T5, proteins displaced from immobilized biotin-Cmpd 1 pulldowns (U2OS cell lysate) (Homo sapiens, UniProt Q01105); conditions: GN=SET (Q01105)
T5 construct: endogenous in cells; host or cells: U2OS
T5 sequence (Q01105 whole entry): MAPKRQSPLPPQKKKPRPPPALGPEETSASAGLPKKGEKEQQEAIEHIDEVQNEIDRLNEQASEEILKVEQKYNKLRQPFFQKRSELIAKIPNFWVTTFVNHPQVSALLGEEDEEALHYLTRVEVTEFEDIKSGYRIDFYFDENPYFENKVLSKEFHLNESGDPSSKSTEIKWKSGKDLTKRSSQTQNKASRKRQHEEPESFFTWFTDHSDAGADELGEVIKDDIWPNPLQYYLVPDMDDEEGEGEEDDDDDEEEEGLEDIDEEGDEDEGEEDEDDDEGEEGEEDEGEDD
Experimental: as §1, §2, §3, §4

[6] = biological target: T6, proteins displaced from immobilized biotin-Cmpd 1 pulldowns (U2OS cell lysate) (Homo sapiens, UniProt Q15366); conditions: GN=PCBP2 (Q15366)
T6 construct: endogenous in cells; host or cells: U2OS
T6 sequence (Q15366 whole entry): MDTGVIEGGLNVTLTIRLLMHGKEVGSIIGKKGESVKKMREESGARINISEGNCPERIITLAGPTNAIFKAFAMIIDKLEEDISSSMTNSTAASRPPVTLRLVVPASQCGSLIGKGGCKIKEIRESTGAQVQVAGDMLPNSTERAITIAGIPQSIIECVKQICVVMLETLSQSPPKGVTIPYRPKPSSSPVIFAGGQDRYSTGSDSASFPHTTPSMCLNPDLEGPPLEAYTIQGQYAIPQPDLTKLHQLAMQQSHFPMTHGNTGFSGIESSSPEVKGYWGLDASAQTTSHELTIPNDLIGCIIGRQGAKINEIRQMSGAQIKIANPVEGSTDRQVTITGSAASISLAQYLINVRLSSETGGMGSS
Experimental: as §1, §2, §3, §4

[7] = biological target: T7, proteins displaced from immobilized biotin-Cmpd 1 pulldowns (U2OS cell lysate) (Homo sapiens, UniProt Q13200); conditions: GN=PSMD2 (Q13200)
T7 construct: endogenous in cells; host or cells: U2OS
T7 sequence (Q13200 whole entry): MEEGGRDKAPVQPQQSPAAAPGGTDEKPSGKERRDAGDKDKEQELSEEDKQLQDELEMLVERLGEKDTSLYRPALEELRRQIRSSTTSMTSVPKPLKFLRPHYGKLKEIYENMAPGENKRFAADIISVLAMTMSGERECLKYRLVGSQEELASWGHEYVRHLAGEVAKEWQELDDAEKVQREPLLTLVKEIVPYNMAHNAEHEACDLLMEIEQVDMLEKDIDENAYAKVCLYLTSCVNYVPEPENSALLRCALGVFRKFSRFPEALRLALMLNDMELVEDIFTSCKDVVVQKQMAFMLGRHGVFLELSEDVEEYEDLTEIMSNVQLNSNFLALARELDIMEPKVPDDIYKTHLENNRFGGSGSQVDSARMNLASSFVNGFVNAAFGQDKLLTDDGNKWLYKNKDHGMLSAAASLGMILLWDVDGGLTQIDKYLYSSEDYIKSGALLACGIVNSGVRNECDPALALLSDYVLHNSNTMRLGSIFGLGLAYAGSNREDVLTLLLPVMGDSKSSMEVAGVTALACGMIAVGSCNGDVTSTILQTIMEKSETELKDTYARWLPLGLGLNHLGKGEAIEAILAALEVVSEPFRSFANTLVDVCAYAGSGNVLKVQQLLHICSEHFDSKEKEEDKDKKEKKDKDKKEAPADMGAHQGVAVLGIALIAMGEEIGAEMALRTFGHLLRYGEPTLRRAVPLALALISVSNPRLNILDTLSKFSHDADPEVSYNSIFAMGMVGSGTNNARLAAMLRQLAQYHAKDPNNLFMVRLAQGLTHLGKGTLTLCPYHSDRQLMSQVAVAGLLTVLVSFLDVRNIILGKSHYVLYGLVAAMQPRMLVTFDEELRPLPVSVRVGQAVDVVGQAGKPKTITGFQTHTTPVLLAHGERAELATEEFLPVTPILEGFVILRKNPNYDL
Experimental: as §1, §2, §3, §4

[8] = biological target: T8, proteins displaced from immobilized biotin-Cmpd 1 pulldowns (U2OS cell lysate) (Homo sapiens, UniProt Q9NZM5); conditions: GN=NOP53 (Q9NZM5)
T8 construct: endogenous in cells; host or cells: U2OS
Experimental: as §1, §2, §3, §4

[9] = biological target: T9, proteins displaced from immobilized biotin-Cmpd 1 pulldowns (U2OS cell lysate) (Homo sapiens, UniProt P60174); conditions: GN=TPI1 (P60174)
T9 construct: endogenous in cells; host or cells: U2OS
T9 sequence (P60174 whole entry): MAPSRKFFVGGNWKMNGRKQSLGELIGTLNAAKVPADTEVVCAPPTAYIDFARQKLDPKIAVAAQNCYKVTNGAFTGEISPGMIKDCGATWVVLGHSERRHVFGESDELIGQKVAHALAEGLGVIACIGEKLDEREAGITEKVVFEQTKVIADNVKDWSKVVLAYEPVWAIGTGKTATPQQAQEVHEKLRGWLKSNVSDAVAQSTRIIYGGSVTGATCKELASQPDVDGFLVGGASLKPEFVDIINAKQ
Experimental: as §1, §2, §3, §4

[10] = biological target: T10, proteins displaced from immobilized biotin-Cmpd 1 pulldowns (U2OS cell lysate) (Homo sapiens, UniProt Q15050); conditions: GN=RRS1 (Q15050)
T10 construct: endogenous in cells; host or cells: U2OS
T10 sequence (Q15050 whole entry): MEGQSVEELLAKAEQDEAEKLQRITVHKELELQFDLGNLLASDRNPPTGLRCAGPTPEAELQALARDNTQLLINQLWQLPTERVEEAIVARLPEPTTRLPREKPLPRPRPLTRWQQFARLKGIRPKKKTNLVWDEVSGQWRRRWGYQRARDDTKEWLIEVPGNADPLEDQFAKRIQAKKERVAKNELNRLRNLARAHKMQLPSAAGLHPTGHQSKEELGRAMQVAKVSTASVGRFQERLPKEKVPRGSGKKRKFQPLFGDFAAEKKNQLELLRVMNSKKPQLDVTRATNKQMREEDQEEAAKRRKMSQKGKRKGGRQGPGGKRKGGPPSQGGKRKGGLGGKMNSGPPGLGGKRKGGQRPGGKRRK
Experimental: as §1, §2, §3, §4

Cn1c2c(c(=N)c3c1CCC3)CCC2 [Compound 1, 4-methyl-2,3,4,5,6,7-hexahydrodicyclopenta[b,e]pyridin-8(1H)-imine]
Difference ([1]; Cmpd minus DMSO, -LOG(P-value) 0.981964): 1.653
iBAQ Cmpd ([1]; replicates 1-3): 17.9091 and 17.4238 and 17.5156
Difference ([2]; Cmpd minus DMSO, -LOG(P-value) 1.19354): -0.7441
iBAQ Cmpd ([2]; replicates 1-3): 16.0313 and 15.2476 and 15.6479
Difference ([3]; Cmpd minus DMSO, -LOG(P-value) 0.772292): 1.661
iBAQ Cmpd ([3]; replicates 1-3): 17.4605 and 16.7059 and 15.0689
Difference ([4]; Cmpd minus DMSO, -LOG(P-value) 1.09295): -1.787
iBAQ Cmpd ([4]; replicates 1-3): 15.5737 and 16.3289 and 18.0803
Difference ([5]; Cmpd minus DMSO, -LOG(P-value) 0.992199): 4.792
iBAQ Cmpd ([5]; replicates 1-3): 21.3063 and 22.1737 and 20.6451
Difference ([6]; Cmpd minus DMSO, -LOG(P-value) 0.939549): -2.733
iBAQ Cmpd ([6]; replicates 1-3): 15.8606 and 15.1154 and 18.8903
Difference ([7]; Cmpd minus DMSO, -LOG(P-value) 1.86828): -0.9512
iBAQ Cmpd ([7]; replicates 1-3): 17.2697 and 17.2993 and 16.9257
Difference ([8]; Cmpd minus DMSO, -LOG(P-value) 0.867991): 2.66
iBAQ Cmpd ([8]; replicates 1-3): 18.4766 and 17.8155 and 17.9258
Difference ([9]; Cmpd minus DMSO, -LOG(P-value) 0.713184): -0.9556
iBAQ Cmpd ([9]; replicates 1-3): 17.6148 and 17.9108 and 16.6151
Difference ([10]; Cmpd minus DMSO, -LOG(P-value) 0.720694): 2.281
iBAQ Cmpd ([10]; replicates 1-3): 15.4548 and 18.445 and 19.3119
